From patent publication US9630935B2, “Compositions for the treatment of hypertension and/or fibrosis” (Vectus Biosystems Limited, priority 2013, dated 2017)

Tests used:
[1] = test system: spontaneous hypertensive rats (SHR); assay: Oral study in SHR on 2.2% salt diet: blood pressure by tail cuff plethysmography; format: in vivo, rat; settings: 4 weeks treatment, 100 or 500 pmol/kg/min orally in drinking solution, compared to controls (FIG. 13)
Excerpt: (§1) Fourteen week old SHR (on a 2.2% salt diet; Glen Forrest Stockfeeders) were randomly assigned to zero time control, test compound treatment (100 or 500 pmol/kg/min) in the drinking solution or control drinking solution (5% ethanol in deionised distilled water (n=5 each group). The rats assigned to zero time control group were anaesthetised and had their heart and kidneys harvested while rats assigned to control and test compound treatment were weighed twice weekly and had their drinking solution intake monitored to allow adjustment of the test compound concentration in the drinking solution to maintain a constant dose over the 4-week study period. Blood pressure was measured twice weekly by tail cuff plethysmography (PowerLab, ADInstruments, Castle Hill, NSW, Australia).

[2] = test system: spontaneous hypertensive rats (SHR); assay: Oral study in SHR on 2.2% salt diet: myocardial fibrosis, histomorphometry on Masson's trichrome stained sections; format: in vivo, rat; settings: for Fibrosis in the heart: 18 week old SHR on 2.2% salt diet, 4 weeks treatment, 500 pmol/kg/min orally, compared to controls (FIG. 16); for Histological sections from the hearts (micrographs): rats on 2.2% salt diet treated four weeks with 500 pmol/kg/min, control has extensive fibrosis (FIG. 20)
Excerpt: as §1
(§2) After 4 weeks rats were anaesthetised, and their hearts and kidneys harvested for quantitation of fibrosis.
(§3) To quantitate tissue fibrosis tissue slices ≦3 mm thick were fixed in 10% buffered formalin for 24 hours, processed and embedded in paraffin. Three micron transverse sections were stained using Masson's trichrome stain. A minimum of […] random fields at magnification ×20 from transverse sections (5 at each of 2 levels) were digitized and the degree of fibrosis determined as a percent of field area of each digitized image using Image-Pro Plus V.7 (Media Cybernetics, Bethesda, Md., USA) then averaged to determine the level of fibrosis for tissue for each rat.

[3] = test system: spontaneous hypertensive rats (SHR); assay: Oral study in SHR on 2.2% salt diet: kidney interstitial fibrosis, histomorphometry on Masson's trichrome stained sections; format: in vivo, rat; settings: for Fibrosis in the kidney: 18 week old SHR on 2.2% salt diet, 4 weeks treatment, 500 pmol/kg/min orally, compared to controls (FIG. 17); for Histological sections from the kidneys (micrographs): rats on 2.2% salt diet treated four weeks with 500 pmol/kg/min, control has extensive fibrosis (FIG. 21)
Excerpt: as §1, §2, §3

SMILES | Mean diastolic blood pressure [1] | Mean systolic blood pressure [1] | Fibrosis in the heart [2] | Histological sections from the hearts (micrographs) [2] | Fibrosis in the kidney [3] | Histological sections from the kidneys (micrographs) [3] | melting point [°C]
NC(=O)CCc1cc(-c2ccccc2)ccc1-c1cccc(NC=O)c1 [T2, 3-(3-Formamido-[1,1′:4′,1″-terphenyl]-2′-yl)propanamide] | decreased compared to controls | decreased blood pressure compared to controls | decreased compared to controls | no discrete areas of fibrosis are present | decreased compared to controls | fibrosis has been reduced to thin bands incompletely surrounding some but not all tubules | –
NC(=O)CCc1cc(-c2ccccc2)ccc1-c1ccc2[nH]c(=O)[nH]c2c1 [T31, 3-(4-(2-Oxo-2,3-dihydro-1H-benzo[d]imidazol-5-yl)-[1,1′-biphenyl]-3-yl)propanamide] | decreased compared to controls | decreased blood pressure compared to controls | decreased compared to controls | no discrete areas of fibrosis are present | decreased compared to controls | fibrosis has been reduced to thin bands incompletely surrounding some but not all tubules | 250 to 251
NC(=O)CCc1cc(-c2ccccc2)ccc1-c1cc(O)cc(O)c1 [T20, 3-(3,5-Dihydroxy-[1,1′:4′,1″-terphenyl]-2′-yl)propanamide] | – | decreased blood pressure compared to controls | decreased compared to controls | no discrete areas of fibrosis are present | decreased compared to controls | fibrosis has been reduced to thin bands incompletely surrounding some but not all tubules | 232 to 233
NC(=O)CCc1cc(-c2ccccc2)ccc1-c1ccc2c(c1)NC(=O)C2 [T25, 3-(4-(2-Oxoindolin-6-yl)-[1,1′-biphenyl]-3-yl)propanamide] | – | – | – | – | – | – | 219 to 222
NC(=O)CCc1cc(-c2ccccc2)ccc1-c1ccnc(N)c1 [T48, 3-(4-(2-Aminopyridin-4-yl)-[1, 1′-biphenyl]-3-yl)propanamide] | – | decreased blood pressure compared to controls | decreased compared to controls | – | decreased compared to controls | – | 248 to 249
CS(=O)(=O)Nc1cccc(-c2ccc(-c3ccccc3)cc2CCC(N)=O)c1 [T1, 3-(3-(Methylsulfonamido)-[1,1′:4′,1″-terphenyl]-2′-yl)propanamide] | decreased compared to controls | decreased blood pressure compared to controls | decreased compared to controls | no discrete areas of fibrosis are present | decreased compared to controls | fibrosis has been reduced to thin bands incompletely surrounding some but not all tubules | –
CS(=O)(=O)Nc1cc(NS(C)(=O)=O)cc(-c2ccc(-c3ccccc3)cc2CCC(N)=O)c1 [T70, 3-(3,5-Di(methylsulfonamido)-[1,1′:4′,1″-terphenyl]-2′-yl)propanamide] | decreased compared to controls | decreased blood pressure compared to controls | decreased compared to controls | – | decreased compared to controls | – | –
